How the values were obtained:
Type in all cases: in vivo
[1] = test system: ApoE−/− and ApoE−/−/IDO−/− mice; assay: Serum cytokine in AngII-infused mice; details: 4 weeks, mean ± s.e.m.
Source text: (§1) IDO^−/− and ApoE^−/− mice were obtained from Jackson laboratory (Bar Harbor, Maine) in a C57BL/6 background. IDO^−/− mice were crossed with ApoE^−/− mice to generate ApoE^−/−/IDO^−/− mice. Mice were housed in temperature-controlled cages under a 12-hour light/dark cycle and given free access to water and normal chow. All procedures involving animals were approved by the Institutional Animal Care and Use Committee at the University of Oklahoma Health Sciences Center. […] Circ Res. (2014) 114:480-92.
AngII infusion is intensely associated with vascular inflammation, which is considered a key mediator of AngII-induced AAA formation. See Qin Z, et al., Angiotensin II-induced TLR4 mediated abdominal aortic aneurysm in apolipoprotein E knockout mice is dependent on STAT3. J Mol Cell Cardiol. (2015) 87:160-70; Owens A P, et al., MyD88 deficiency attenuates angiotensin II-induced abdominal aortic aneurysm formation independent of signaling through Toll-like receptors 2 and 4. Arterioscler Thromb Vasc Biol. (2011) 31:2813-9. […] Circ Res. (2014) 114:480-92. Similarly, an increase in IFN-γ expression was evident in the aortas of AngII-treated ApoE^−/− and ApoE^−/−/IDO^−/− mice. The consequent induction of IDO expression in the aortas of AngII-infused ApoE^−/− mice was also observed (FIGS. 2A, 2B, and 2E). […] This may be due to the high content of Trp in mouse diets.

[2] = test system: ApoE−/− and ApoE−/−/IDO−/− mice; assay: Blood pressure and heart rate in AngII-infused mice; details: 4 weeks, mean ± s.e.m.; for sBP: AngII 1000 ng/min/kg; for Dbp / HR: AngII
Source text: as §1
Circ Res. (2014) 114:480-92.
AngII-induced mouse AAA formation in the atherosclerotic-susceptible strain (ApoE^−/−) has become the most widely used model. See Qin Z, et al., Angiotensin II-induced TLR4 mediated abdominal aortic aneurysm in apolipoprotein E knockout mice is dependent on STAT3. J Mol Cell Cardiol. (2015) 87:160-70; Rateri D L, et al., Prolonged infusion of angiotensin II in ApoE (−/−) mice promotes macrophage recruitment with continued expansion of abdominal aortic aneurysm. Am J Pathol. (2011) 179:1542-8; Cassis L A, et al., ANG II infusion promotes abdominal aortic aneurysms independent of increased blood pressure in hypercholesterolemic mice. Am J Physiol Heart Circ Physiol. (2009) 296:H1660-5; Daugherty A and Cassis L A. Mouse models of abdominal aortic aneurysms. Arterioscler Thromb Vasc Biol. (2004) 24:429-34; Owens A P, 3rd, Rateri D L, Howatt D A, Moore K J, Tobias P S, Curtiss L K, Lu H, Cassis L A and Daugherty A. MyD88 deficiency attenuates angiotensin II-induced abdominal aortic aneurysm formation independent of signaling through Toll-like receptors 2 and 4. Arterioscler Thromb Vasc Biol. (2011) 31:2813-9. To unravel the role of the Trp-Kyn pathway in AAA formation ApoE^−/−/IDO^−/− (double-knockout) mice were generated and the outcome of a 4-week AngII infusion (1000 ng/min/kg) in ApoE^−/− and ApoE^−/−/IDO^−/− mice was determined. As depicted in Table 1 and 2, AngII infusion increased blood pressure without affecting the heart rate or any metabolic parameters.

ApoE−/− mice = assay: OMBA, NBA and 1MT treating AngII-induced abdominal aortic aneurysm (Example 15); details: ApoE−/− mice; AngII 1,000 ng/kg/min four weeks, then drug in drinking water 6 weeks; mice with AAA/group size
Method: To test the effect of other Kynurenine pathway inhibitors on treating AngII-induced abdominal aortic aneurysm, male ApoE^−/− mice at age 8 weeks were infused with AngII (1,000 ng/kg/min) or saline (0.9% sodium chloride) by Alzet osmotic pumps for four weeks. Four weeks later, Ang-II treated mice were divided into […] groups of 18 and administered o-methoxybenzo ylalanine (OMB), (m-nitrobenzoyl)alanine (NBA), 1-methyltryptophan (1MT) or vehicle control (water) by drinking water for 6 weeks.
To quantify AAA incidence and size, the maximum width of abdominal aorta was measured with Image Pro Plus software (Media Cybernetics). Aneurysm incidence was quantified based on a definition of aneurysm as an external width of the suprarenal aorta that was increased by 50% or greater compared with aortas from saline-infused mice. The average diameter of the normal suprarenal aorta in control mice is 0.8 mm. Therefore, a threshold of 1.22 mm as evidence of aneurysm formation was set. […] Incidence of AAA among the various groups of mice is outlined in FIG. 31A and Table 5 below.

## Angiotensin II (DRVYIHPF; Angiotensin-2; UniProt P01019 25-32, looked up) [AngII, Angiotensin II (Sigma, A9525) infused to induce AAA in mice]
[1]; Apoe−/− mice
  CyPA: 771.8 ± 36.8 pM
  IFN-y: 24.91 ± 1.75 pg/mL
  IL -6: 20.07 ± 3.25 pg/mL
  TNF - a: 123.7 ± 18.2 pg/mL
[1]; Apoe−/−/IDO−/− mice
  CyPA: 572.2 ± 42.7 pM
  IFN-y: 28.32 ± 2.73 pg/mL
  IL -6: 22.25 ± 5.45 pg/mL
  TNF - a: 118.5 ± 16.1 pg/mL
[2]; Apoe−/− mice
  sBP: 149.1 ± 19.5 mm Hg
  Dbp: 112.7 ± 17.3 mmHg
  HR: 471 ± 42 Beats/min
[2]; Apoe−/−/IDO−/− mice
  sBP: 155.6 ± 18.4 mm Hg
  Dbp: 119.1 ± 14.9 mmHg
  HR: 453 ± 43 Beats/min
ApoE−/− mice
  Incidence of AAA: 15/18
